Measurements published in PubChem BioAssay (NCI).
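Tested at 5 concentrations; 48 h exposure; 96-well plates; endpoints linearly interpolated, else capped at highest concentration. Here, GI50 denotes the concentration required for 50% inhibition of growth. Definition used: TGI = concentration required for complete inhibition of growth.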

Legend:
Assay in all cases: NCI tumour cell line growth inhibition, 48 h
OVCAR-8 ovarian = test system: OVCAR-8 ovarian
ACHN renal = test system: ACHN renal
UACC-257 melanoma = test system: UACC-257 melanoma
MOLT-4 leukemia = test system: MOLT-4 leukemia
HOP-92 NSCLC = test system: HOP-92 NSCLC
SNB-19 CNS = test system: SNB-19 CNS
HCT-116 colon = test system: HCT-116 colon
NCI-H23 lung = test system: NCI-H23 lung
T-47D breast = test system: T-47D breast
MDA-MB-231 breast = test system: MDA-MB-231 breast
HT29 colon = test system: HT29 colon
SN12C renal = test system: SN12C renal
SR leukemia = test system: SR leukemia
LOX IMVI melanoma = test system: LOX IMVI melanoma
TK-10 renal = test system: TK-10 renal
A549 NSCLC = test system: A549 NSCLC
BT-549 breast = test system: BT-549 breast
SW-620 colon = test system: SW-620 colon
A498 renal = test system: A498 renal
M14 melanoma = test system: M14 melanoma
SF-539 CNS = test system: SF-539 CNS
OVCAR-3 ovarian = test system: OVCAR-3 ovarian
HOP-62 NSCLC = test system: HOP-62 NSCLC
KM12 colon = test system: KM12 colon
PC-3 prostate = test system: PC-3 prostate
SK-MEL-2 melanoma = test system: SK-MEL-2 melanoma
RPMI-8226 leukemia = test system: RPMI-8226 leukemia
SF-295 CNS = test system: SF-295 CNS
NCI-H522 lung = test system: NCI-H522 lung
MDA-MB-435 = test system: MDA-MB-435
SK-OV-3 ovarian = test system: SK-OV-3 ovarian
UO-31 renal = test system: UO-31 renal
SNB-75 CNS = test system: SNB-75 CNS
DU-145 prostate = test system: DU-145 prostate
OVCAR-4 ovarian = test system: OVCAR-4 ovarian
NCI-H460 lung = test system: NCI-H460 lung
HCC-2998 colon = test system: HCC-2998 colon
SF-268 CNS = test system: SF-268 CNS
NCI/ADR-RES ovarian = test system: NCI/ADR-RES ovarian
CAKI-1 renal = test system: CAKI-1 renal
IGROV1 ovarian = test system: IGROV1 ovarian
RXF 393 renal = test system: RXF 393 renal
SK-MEL-28 melanoma = test system: SK-MEL-28 melanoma
OVCAR-5 ovarian = test system: OVCAR-5 ovarian
MALME-3M melanoma = test system: MALME-3M melanoma
COLO 205 colon = test system: COLO 205 colon
HS 578T breast = test system: HS 578T breast
CCRF-CEM leukemia = test system: CCRF-CEM leukemia
HCT-15 colon = test system: HCT-15 colon
U251 CNS = test system: U251 CNS
K-562 leukemia = test system: K-562 leukemia
786-0 renal = test system: 786-0 renal
UACC-62 melanoma = test system: UACC-62 melanoma
NCI-H226 lung = test system: NCI-H226 lung
MCF7 breast = test system: MCF7 breast
HL-60(TB) leukemia = test system: HL-60(TB) leukemia
SK-MEL-5 melanoma = test system: SK-MEL-5 melanoma

O=C(Nc1cccc(-n2cc(-c3ccncc3)c(-c3ccc(Cl)c(O)c3)n2)c1)Nc1cccc(C(F)(F)F)c1
GI50 (OVCAR-8 ovarian): 1.57 µM
TGI (OVCAR-8 ovarian): > 32.5 µM
GI50 (ACHN renal): 1.29 µM
TGI (ACHN renal): > 32.5 µM
GI50 (UACC-257 melanoma): 4.34 µM
TGI (UACC-257 melanoma): 19.1 µM
GI50 (MOLT-4 leukemia): 1.92 µM
TGI (MOLT-4 leukemia): > 32.5 µM
GI50 (HOP-92 NSCLC): 0.509 µM
TGI (HOP-92 NSCLC): 2.23 µM
GI50 (SNB-19 CNS): 1.91 µM
TGI (SNB-19 CNS): > 32.5 µM
GI50 (HCT-116 colon): 1.39 µM
TGI (HCT-116 colon): 8.26 µM
GI50 (NCI-H23 lung): 1.9 µM
TGI (NCI-H23 lung): > 32.5 µM
GI50 (T-47D breast): 2.47 µM
TGI (T-47D breast): > 32.5 µM
GI50 (MDA-MB-231 breast): 3.59 µM
TGI (MDA-MB-231 breast): 26.8 µM
GI50 (HT29 colon): 9.82 µM
TGI (HT29 colon): > 32.5 µM
GI50 (SN12C renal): 2.01 µM
TGI (SN12C renal): > 32.5 µM
GI50 (SR leukemia): 1.82 µM
TGI (SR leukemia): 20 µM
GI50 (LOX IMVI melanoma): 2.53 µM
TGI (LOX IMVI melanoma): 9.58 µM
GI50 (TK-10 renal): 2.12 µM
TGI (TK-10 renal): > 32.5 µM
GI50 (A549 NSCLC): 1.37 µM
TGI (A549 NSCLC): > 32.5 µM
GI50 (BT-549 breast): 6.51 µM
TGI (BT-549 breast): 21.4 µM
GI50 (SW-620 colon): 3.82 µM
TGI (SW-620 colon): > 32.5 µM
GI50 (A498 renal): 2.24 µM
TGI (A498 renal): > 32.5 µM
GI50 (M14 melanoma): 1.4 µM
TGI (M14 melanoma): 10.8 µM
GI50 (SF-539 CNS): 3.54 µM
TGI (SF-539 CNS): 11.6 µM
GI50 (OVCAR-3 ovarian): 1.06 µM
TGI (OVCAR-3 ovarian): 6.13 µM
GI50 (HOP-62 NSCLC): 6.86 µM
TGI (HOP-62 NSCLC): > 32.5 µM
GI50 (KM12 colon): 1.33 µM
TGI (KM12 colon): > 32.5 µM
GI50 (PC-3 prostate): 0.948 µM
TGI (PC-3 prostate): 22.4 µM
GI50 (SK-MEL-2 melanoma): 2.02 µM
TGI (SK-MEL-2 melanoma): 10.8 µM
GI50 (RPMI-8226 leukemia): 1.34 µM
TGI (RPMI-8226 leukemia): > 32.5 µM
GI50 (SF-295 CNS): 0.962 µM
TGI (SF-295 CNS): 4.26 µM
GI50 (NCI-H522 lung): 1.46 µM
TGI (NCI-H522 lung): 14.5 µM
GI50 (MDA-MB-435): 1.49 µM
TGI (MDA-MB-435): 12.6 µM
GI50 (SK-OV-3 ovarian): 4.97 µM
TGI (SK-OV-3 ovarian): > 32.5 µM
GI50 (UO-31 renal): 1.86 µM
TGI (UO-31 renal): > 32.5 µM
GI50 (SNB-75 CNS): 3.65 µM
TGI (SNB-75 CNS): > 32.5 µM
GI50 (DU-145 prostate): 1.76 µM
TGI (DU-145 prostate): > 32.5 µM
GI50 (OVCAR-4 ovarian): 3.18 µM
TGI (OVCAR-4 ovarian): > 32.5 µM
GI50 (NCI-H460 lung): 1.18 µM
TGI (NCI-H460 lung): 29 µM
GI50 (HCC-2998 colon): 7.26 µM
TGI (HCC-2998 colon): > 32.5 µM
GI50 (SF-268 CNS): 1.95 µM
TGI (SF-268 CNS): 15.8 µM
GI50 (NCI/ADR-RES ovarian): 2.14 µM
TGI (NCI/ADR-RES ovarian): > 32.5 µM
GI50 (CAKI-1 renal): 1.75 µM
TGI (CAKI-1 renal): > 32.5 µM
GI50 (IGROV1 ovarian): 1.64 µM
TGI (IGROV1 ovarian): > 32.5 µM
GI50 (RXF 393 renal): 3.02 µM
TGI (RXF 393 renal): 12 µM
GI50 (SK-MEL-28 melanoma): 4.11 µM
TGI (SK-MEL-28 melanoma): > 32.5 µM
GI50 (OVCAR-5 ovarian): 13.7 µM
TGI (OVCAR-5 ovarian): > 32.5 µM
GI50 (MALME-3M melanoma): 1.81 µM
TGI (MALME-3M melanoma): 20.1 µM
GI50 (COLO 205 colon): 7.9 µM
TGI (COLO 205 colon): 23.8 µM
GI50 (HS 578T breast): 3.31 µM
TGI (HS 578T breast): > 32.5 µM
GI50 (CCRF-CEM leukemia): 1.4 µM
TGI (CCRF-CEM leukemia): > 32.5 µM
GI50 (HCT-15 colon): 1.51 µM
TGI (HCT-15 colon): > 32.5 µM
GI50 (U251 CNS): 1.59 µM
TGI (U251 CNS): 7.65 µM
GI50 (K-562 leukemia): 1.44 µM
TGI (K-562 leukemia): > 32.5 µM
GI50 (786-0 renal): 4.69 µM
TGI (786-0 renal): > 32.5 µM
GI50 (UACC-62 melanoma): 1.65 µM
TGI (UACC-62 melanoma): 6.91 µM
GI50 (NCI-H226 lung): 7.35 µM
TGI (NCI-H226 lung): > 32.5 µM
GI50 (MCF7 breast): 1.34 µM
TGI (MCF7 breast): > 32.5 µM
GI50 (HL-60(TB) leukemia): 1.45 µM
TGI (HL-60(TB) leukemia): > 32.5 µM
GI50 (SK-MEL-5 melanoma): 1.3 µM
TGI (SK-MEL-5 melanoma): 4.71 µM
